Test results as given in the supplement of paper PMC10307832.

What was measured:
Experiment in all cases: relative viability (nuclei count vs DMSO), 5 days (fraction); higher = more cells survive
[1] = compound: Cc1ccc2nc(NCCN)c3ncc(C)n3c2c1 + COc1cccc2cc(-c3nc([C@H]4CC[C@H](C(=O)O)CC4)n4ncnc(N)c34)[nH]c12 [OSI-027] (partner 0.5 µM)
Method in brief: (§1)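 Medians of duplicate plates are given as relative viability. That measure is the nuclei count in treated wells divided by the count in vehicle wells. Counts were taken on 4× images of lung cancer cell lines in 1536-well plates, 5 days after pin-tool dosing the day after seeding with one drug alone or a fixed anchor-drug dose plus five library-drug doses (not always all listed) in √10 steps.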

Salubrinal + Lapatinib = compound: O=C(/C=C/c1ccccc1)NC(NC(=S)Nc1cccc2cccnc12)C(Cl)(Cl)Cl [Salubrinal] + CS(=O)(=O)CCNCc1ccc(-c2ccc3ncnc(Nc4ccc(OCc5cccc(F)c5)c(Cl)c4)c3c2)o1 [Lapatinib] (partner 2 µM)
Method in brief: as §1

Salubrinal + Dasatinib = compound: O=C(/C=C/c1ccccc1)NC(NC(=S)Nc1cccc2cccnc12)C(Cl)(Cl)Cl [Salubrinal] + Cc1nc(Nc2ncc(C(=O)Nc3c(C)cccc3Cl)s2)cc(N2CCN(CCO)CC2)n1 [Dasatinib] (partner 0.075 µM)
Method in brief: as §1

[2] = compound: Cc1ccc2nc(NCCN)c3ncc(C)n3c2c1 + CS(=O)(=O)N1CCN(Cc2cc3nc(-c4cccc5[nH]ncc45)nc(N4CCOCC4)c3s2)CC1 [Pictilisib] (partner 1 µM)
Method in brief: as §1

Cell Line	relative viability ([1]; first compound 0.04 µM)	relative viability ([1]; first compound 0.1265 µM)	relative viability ([1]; first compound 0.4 µM)	relative viability ([1]; first compound 1.265 µM)	relative viability ([1]; first compound 4 µM)	relative viability (Salubrinal + Lapatinib; first compound 0.08 µM)	relative viability (Salubrinal + Lapatinib; first compound 0.253 µM)	relative viability (Salubrinal + Lapatinib; first compound 0.8 µM)	relative viability (Salubrinal + Lapatinib; first compound 2.53 µM)	relative viability (Salubrinal + Lapatinib; first compound 8 µM)	relative viability (Salubrinal + Dasatinib; first compound 0.08 µM)	relative viability (Salubrinal + Dasatinib; first compound 0.253 µM)	relative viability (Salubrinal + Dasatinib; first compound 0.8 µM)	relative viability (Salubrinal + Dasatinib; first compound 2.53 µM)	relative viability (Salubrinal + Dasatinib; first compound 8 µM)	relative viability ([2]; first compound 0.04 µM)	relative viability ([2]; first compound 0.1265 µM)	relative viability ([2]; first compound 0.4 µM)	relative viability ([2]; first compound 1.265 µM)	relative viability ([2]; first compound 4 µM)
LU99A	0.34	0.268	0.283	0.273	0.298	1.17	1.15	1.13	0.945	0.594	0.537	0.597	0.688	0.593	0.416	0.346	0.328	0.327	0.349	0.321
ABC-1	0.595	0.559	0.564	0.439	0.484	1.46	1.35	1.17	1.25	1.15	0.54	0.508	0.633	0.634	0.554	0.721	0.78	0.822	0.813	0.678
NCI-H1793	0.305	0.314	0.236	0.317	0.29	0.947	0.654	0.657	0.818	0.752	0.448	0.421	0.359	0.385	0.398	0.393	0.381	0.383	0.389	0.309
NCI-H2347	0.373	0.503	0.386	0.425	0.223	0.736	0.903	0.967	0.923	0.891	0.295	0.327	0.317	0.346	0.318	0.762	0.673	0.59	0.645	0.557
NCI-H1993	0.521	0.53	0.544	0.562	0.508	0.887	0.866	0.814	1.14	0.9	0.602	0.573	0.525	0.506	0.503	0.804	0.648	0.693	0.765	0.771
NCI-H322M	0.641	0.544	0.481	0.568	0.526	0.606	0.589	0.669	0.657	0.517	0.267	0.24	0.256	0.265	0.274	0.521	0.566	0.571	0.512	0.503
NCI-H838	0.462	0.397	0.445	0.385	0.398	1.1	0.914	1.23	1.03	0.674	0.304	0.288	0.318	0.262	0.266	0.43	0.416	0.409	0.423	0.365
HARA	0.488	0.505	0.233	0.459	0.553	0.709	0.651	0.819	0.748	0.828	0.341	0.29	0.282	0.265	0.263	0.524	0.362	0.436	0.39	0.418
NCI-H2087	0.648	0.595	0.478	0.703	0.501	1.04	1.06	1.16	0.93	1.1	0.954	0.62	1.15	1.01	0.733	1.05	0.824	0.816	0.981	0.984
NCI-H1437	1	0.871	0.886	0.879	0.884	0.925	0.763	0.94	0.878	0.653	0.406	0.42	0.487	0.507	0.243	0.427	0.449	0.443	0.369	0.374
NCI-H358	0.807	0.708	0.694	0.797	0.858	0.531	0.514	0.365	0.494	0.47	0.173	0.23	0.154	0.149	0.145	0.348	0.394	0.364	0.379	0.367
NCI-H1792	0.683	0.756	0.707	0.704	0.638	1.11	–	1.64	0.914	0.873	0.822	–	0.723	0.81	0.702	0.348	0.244	0.309	0.259	0.242
NCI-H650	0.558	0.585	0.443	0.538	0.513	0.696	0.84	1.42	1.05	0.822	0.425	0.462	0.462	0.474	0.413	0.927	0.827	0.785	0.767	0.946
COR-L23	0.911	0.764	0.777	0.729	0.61	1.38	0.626	1.37	1	0.539	0.522	0.496	0.645	0.53	0.453	0.866	0.7	0.741	0.85	0.741
COR-L 105	0.79	0.753	0.666	0.691	0.723	0.377	0.317	0.395	0.389	0.35	0.365	0.325	0.345	0.317	0.319	0.507	0.399	0.422	0.468	0.31
LK-2	0.173	0.202	0.182	0.188	0.18	1.07	0.977	1.16	0.994	0.85	0.378	0.302	0.296	0.312	0.342	0.585	0.547	0.604	0.406	0.463
